# Measured values from patent publication US20060014726A1, “Derivatives of cyclic1, 3- propanediol phosphate and their action in differentiation therapy” (priority 2002, published 2006).
# Assays:
# [1] = test system: ER-α in T47D cells; test: Western blot analysis of ER-α level in T47D cells; type: cell-based, human; settings: 15 μM
# Method: Turning to FIG. 1 there are shown Western blot analyses showing the effect of 1,3cPP on the expression level of ER-α. In the ER-α assay, MCF-7 cells were incubated with 1-100 μM 1,3cPP for up to 14 days. The analysis indicates a relative increase in the level of wild type ER-α receptor (MW 70,000) with either an increase in 1,3cPP concentration or time of incubation. On days 6 and 14, a nearly 2-fold and 3-fold increase were observed, respectively (FIGS. 1A, C, D, F). […] This band could be related to one of deleted exons D3-4 (MW 49,000), D4 (MW 54,000), or D7 (MW 51,000) ER-α variants.
# Breast Cancer Cells. The human breast cancer MCF-7 cell line were obtained from Prof. […] The absence of Mycoplasma contamination was monitored by a Mycotrim TC test (Irvine Scientific, Santa Ana, Calif.) carried out once every 3 months.
# For ER-α protein analysis, MCF-7 and T47D cells were cultured in 60×15 mm petri dishes. […] The protein concentration in each sample (1.5-4 mg/ml) was determined using the Coomassie Protein Assay (Pierce, Rockford, Ill.) according to the manufacturer's instructions. […] Bound antibodies were detected by horseradish peroxidase-conjugated goat anti-rabbit IgG, (Transduction Laboratories, Lexington, Ky. using the ECL detection method. Band densities were quantified by densitometry (Biorad model GS-690 Imaging densitometer) using Molecular Analyst software.
# [2] = test system: T47D human breast cancer cells (clone 11); test: Proliferation assay ([3H]thymidine uptake); type: cell-based; settings: T47D clone 11, 50 μM
# Method: In order to validate such an observation, T47D cells were incubated with varying concentration of 1,3-cPP in the range of 1-50 μM in a standard 5 day [3H]thymidine uptake assay.
# T47D cells (clone 11;ER^+PR^+) were plated in 96 well plates in sets of 6, each containing 8×10^4 cells in a final volume of 200 μl per well. 1,3-cPP was added to the cultures to form a final concentration of 1-50 μM. Plates were incubated at 37° C. over the course of 5 days, where on each day, one plate was pulsed with [^3H]thymidine (5.7 Ci/mmol, Sigma, St. Louis, Mo.) overnight for the last 16 hours of the assay, and then frozen. The plates were harvested (Packard micromate 196 harvester, Merriden, Conn.) and radioactivity was scored on a 96 well plate reader (Packard 96, merriden, Conn.).
# [3] = Acute toxicity testing; type: in vivo; settings: CD-1 mice
# Method: The acute toxicity of 1,3cPP was determined in CD-1 male and female mice, 8-12 weeks of age, via i.v., i.p. and p.o. routes of administration.
structure (smiles),measurement,setting,value
"O=P1(O)OCCCO1 [1,3-cPP, 1,3-cyclic propanediol phosphate]",level of wild type ER-α receptor,"[1]; T47D (ER+PR+) clone 11 cells, 6 days",sharp increase
same,"expression of variant ER-α (MW≈40,000)","[1]; T47D clone 8 (ERlo PRlo), 3 days incubation",sharp increase
same,"proliferation ([3H]thymidine uptake), persistence of effect",[2]; after the third day of 5 day assay,effect was lost after the third day
same,proliferation ([3H]thymidine uptake) compared to control cultures,"[2]; first 3 days of incubation, P values 0.0370, 0.0192 and 0.0238 on days 1-3",significantly inhibited proliferation
same,"acute 24 hr toxicity, pharmacotoxic effects","[3]; i.p., doses of 0.25-5.0 g/kg",no pharmacotoxic effects were observed
same,toxicity classification following conventional criteria,"[3]; i.v., i.p. and p.o.",practically non-toxic substance
same,"acute toxicity, changes in body weight and behavior","[3]; i.v., up to 1 g/kg",no changes in body weight nor in behavior
same,"acute toxicity, changes in body weight and behavior","[3]; p.o., up to 10 g/kg",no changes in body weight nor in behavior
